Test results reported in BindingDB's records for doi:10.1016/S0960-894X(96)00246-6 (1996).

Assay: Inhibition of ADP-induced human platelet aggregation

Going from CC(C)(C)[C@H](NC(=O)[C@H](CC(=O)O)NC(=O)CCCOc1ccc(C(=N)N)cc1)C(=O)O to CC(C)[C@H](NC(=O)[C@H](CC(=O)O)NC(=O)CCCOc1ccc(C(=N)N)cc1)C(=O)O [2-{2-[4-(4-Carbamimidoyl-phenoxy)-butyrylamino]-3-carboxy-propionylamino}-3-methyl-butyric acid (FK633)], the IC50 falls from 230 nM to 100 nM (2.3-fold). The second is the more potent here.

First: CC(C)C[C@H](NC(=O)[C@H](CC(=O)O)NC(=O)CCCOc1ccc(C(=N)N)cc1)C(=O)O [(S)-2-{(S)-2-[4-(4-Carbamimidoyl-phenoxy)-butyrylamino]-3-carboxy-propionylamino}-4-methyl-pentanoic acid]
Second: COc1ccc(C[C@H](NC(=O)[C@H](CC(=O)O)NC(=O)CCCCOc2ccc(C(=N)N)cc2)C(=O)O)cc1 [(S)-3-[5-(4-Carbamimidoyl-phenoxy)-pentanoylamino]-N-[(S)-1-carboxy-2-(4-methoxy-phenyl)-ethyl]-succinamic acid]
The IC50 of the first is 35-fold lower: 130 nM for the first, 4500 nM for the second. The first is the more potent here.

Compound CN(C(=O)[C@H](CC(=O)O)NC(=O)CCCOc1ccc(C(=N)N)cc1)[C@@H](Cc1ccc(O)cc1)C(=O)O [(S)-3-[4-(4-Carbamimidoyl-phenoxy)-butyrylamino]-N-[(S)-1-carboxy-2-(4-hydroxy-phenyl)-ethyl]-N-methyl-succinamic acid] has an IC50 of 120 nM.
